Experimental data: patent US10344017B2, “Pyrrolcarboxamide derivatives for the inhibition of ERK5” (CANCER RESEARCH TECHNOLOGY LIMITED, priority 2014, dated 2019)
Like-named read-outs stand apart in the source and are kept apart here.

Target: T1, ERK5 (Homo sapiens, UniProt Q13164)
T1 construct: made in house
Assay: ERK5 IMAP assay (fluorescence polarisation)
Assay type: biochemical
Description: The assay buffer was prepared using 0.01% Tween®-20 5× stock, supplied as part of IMAP™ FP Progressive Binding System Kit (Molecular Devices R7436) and diluted to 1× using miliQ H2O. 1 μL of a 1M DTT stock was added for every 1 mL of 1× assay buffer to give a final concentration of 1 mM DTT.
ERK5 was expressed and purified at CRT-DL by Leon Pang and Sue Young. Aliquots were stored at −80° C. The ERK5 working solution was used at a […] final dilution in assay buffer. […] For 1 plate, […] of ERK5 stock was added to 2262 μL of 1× assay buffer.
To prepare the IMAP™ binding solution for one plate 20.5 μL of IMAP™ binding reagent stock, 1476 μL of 1× binding buffer A (60%), and 984 μL of binding buffer B (40%) (IMAP™ FP Progressive screening express kit (Molecular Devices R8127) was added to 9819.5 μL of milliQ H2O.
1 μL of inhibitor (in 60:40 H2O/DMSO) or 60:40 H2O/DMSO (for controls and blanks) were dry-spotted into the relevant wells of a 384-well assay plate using the MATRIX PlateMate® Plus. 5 μL of ERK5 working solution was added to test and control wells, and 5 μL of 1× assay buffer added to blanks; 4 μL of ATP/substrate working solution was added to all wells using a Matrix multichannel pipette. The plate was sealed using DMSO resistant clear seal and incubated for 2 h at 37° C. 1 μL of the kinase reaction mixture from the first plate was dry spotted into a second 384-well assay plate using the MATRIX PlateMate® Plus. 9 μL of assay buffer was added, followed by 30 μL of IMAP™ binding solution using a multichannel pipette. The plate was incubated at RT in darkness for 2 h. The assay plate was then read on an Analyst HT plate reader (Molecular Devices) using the settings described below: […]

[1] = average (e.g. geometric mean) where more than one data point, read-out: ERK5 IC50

T1 sequence (Q13164 whole entry): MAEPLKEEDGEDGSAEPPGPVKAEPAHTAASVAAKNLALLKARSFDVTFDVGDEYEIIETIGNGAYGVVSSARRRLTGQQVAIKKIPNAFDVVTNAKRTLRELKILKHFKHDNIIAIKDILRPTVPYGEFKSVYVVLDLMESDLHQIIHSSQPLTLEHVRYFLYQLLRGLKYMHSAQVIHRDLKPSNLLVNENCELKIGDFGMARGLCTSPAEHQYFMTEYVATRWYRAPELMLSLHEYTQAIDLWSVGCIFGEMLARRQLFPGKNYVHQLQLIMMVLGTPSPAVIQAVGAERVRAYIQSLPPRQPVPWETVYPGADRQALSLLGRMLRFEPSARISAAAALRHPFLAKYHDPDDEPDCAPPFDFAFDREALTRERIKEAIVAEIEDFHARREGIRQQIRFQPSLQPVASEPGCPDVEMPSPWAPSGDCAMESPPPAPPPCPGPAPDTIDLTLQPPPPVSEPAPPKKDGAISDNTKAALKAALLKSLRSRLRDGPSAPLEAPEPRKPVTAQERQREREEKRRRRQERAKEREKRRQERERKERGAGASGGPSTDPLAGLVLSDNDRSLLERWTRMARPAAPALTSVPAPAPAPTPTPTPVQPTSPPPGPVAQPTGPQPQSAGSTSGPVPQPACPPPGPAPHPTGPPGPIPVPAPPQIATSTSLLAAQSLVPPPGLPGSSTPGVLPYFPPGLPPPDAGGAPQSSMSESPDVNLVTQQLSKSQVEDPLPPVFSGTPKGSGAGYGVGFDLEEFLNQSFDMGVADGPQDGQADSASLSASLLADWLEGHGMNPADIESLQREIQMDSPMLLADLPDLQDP

Structure (SMILES)	IC50 [1] [µM]	IC50 [µM]
CCCc1ncccc1NC(=O)c1cc(C(=O)c2c(Cl)ccc(Cl)c2F)c[nH]1 [Example 83, 4-(3,6-Dichloro-2-fluorobenzoyl)-N-(2-propylpyridin-3-yl)-1H-pyrrole-2-carboxamide]	3.54	
COc1ncccc1NC(=O)c1cc(C(=O)c2c(Cl)ccc(Cl)c2F)c[nH]1 [Example 84, 4-(3,6-Dichloro-2-fluorobenzoyl)-N-(2-methoxypyridin-3-yl)-1H-pyrrole-2-carboxamide]	1.18	
CCOc1ncccc1NC(=O)c1cc(C(=O)c2c(Cl)ccc(Cl)c2F)c[nH]1 [Example 85, 4-(3,6-Dichloro-2-fluorobenzoyl)-N-(2-ethoxypyridin-3-yl)-1H-pyrrole-2-carboxamide]	6.05	
O=C(Nc1cccnc1N1CCCC1)c1cc(C(=O)c2c(Cl)ccc(Cl)c2F)c[nH]1 [Example 86, 4-(3,6-Dichloro-2-fluorobenzoyl)-N-(2-(pyrrolidin-1-yl)pyridin-3-yl)-1H-pyrrole-2-carboxamide]	12.2	
Cc1ccncc1NC(=O)c1cc(C(=O)c2c(F)cccc2Cl)c[nH]1 [Example 87, 4-(2-Chloro-6-fluorobenzoyl)-N-(4-methylpyridin-3-yl)-1H-pyrrole-2-carboxamide]	1.26	
CCc1ccncc1NC(=O)c1cc(C(=O)c2c(F)cccc2Cl)c[nH]1 [Example 88, 4-(2-Chloro-6-fluorobenzoyl)-N-(4-ethylpyridin-3-yl)-1H-pyrrole-2-carboxamide]	2.14	
CCCc1ccncc1NC(=O)c1cc(C(=O)c2c(F)cccc2Cl)c[nH]1 [Example 89, 4-(2-Chloro-6-fluorobenzoyl)-N-(4-propylpyridin-3-yl)-1H-pyrrole-2-carboxamide]	3.34	
COc1ccncc1NC(=O)c1cc(C(=O)c2c(F)cccc2Cl)c[nH]1 [Example 90, 4-(2-Chloro-6-fluorobenzoyl)-N-(4-methoxypyridin-3-yl)-1H-pyrrole-2-carboxamide]	2.19	
CCOc1ccncc1NC(=O)c1cc(C(=O)c2c(F)cccc2Cl)c[nH]1 [Example 91, 4-(2-Chloro-6-fluorobenzoyl)-N-(4-ethoxypyridin-3-yl)-1H-pyrrole-2-carboxamide]	2.31	
O=C(Nc1cnccc1N1CCCC1)c1cc(C(=O)c2c(F)cccc2Cl)c[nH]1 [Example 92, 4-(2-Chloro-6-fluorobenzoyl)-N-(4-(pyrrolidin-1-yl)pyridin-3-yl)-1H-pyrrole-2-carboxamide]	16.5	
CCc1ccncc1NC(=O)c1cc(C(=O)c2c(Cl)ccc(Cl)c2F)c[nH]1 [Example 94, 4-(3,6-Dichloro-2-fluorobenzoyl)-N-(4-ethylpyridin-3-yl)-1H-pyrrole-2-carboxamide]	1.67	
CCCc1ccncc1NC(=O)c1cc(C(=O)c2c(Cl)ccc(Cl)c2F)c[nH]1 [Example 95, 4-(3,6-Dichloro-2-fluorobenzoyl)-N-(4-propylpyridin-3-yl)-1H-pyrrole-2-carboxamide]	2.82	
CCOc1ccncc1NC(=O)c1cc(C(=O)c2c(Cl)ccc(Cl)c2F)c[nH]1 [Example 97, 4-(3,6-Dichloro-2-fluorobenzoyl)-N-(4-ethoxypyridin-3-yl)-1H-pyrrole-2-carboxamide]	1.38	
O=C(Nc1cnccc1N1CCCC1)c1cc(C(=O)c2c(Cl)ccc(Cl)c2F)c[nH]1 [Example 98, 4-(3,6-Dichloro-2-fluorobenzoyl)-N-(4-(pyrrolidin-1-yl)pyridin-3-yl)-1H-pyrrole-2-carboxamide]	8.71	
Cc1ccc(NC(=O)c2cc(C(=O)c3c(F)cccc3Cl)c[nH]2)c[n+]1[O-] [Example 118, 5-(4-(2-Chloro-6-fluorobenzoyl)-1H-pyrrole-2-carboxamido)-2-methylpyridine 1-oxide]	1.31	
O=C(Nc1ccncc1)c1cc(C(=O)c2c(F)cccc2F)c[nH]1 [Example 121, 4-(2,6-Difluorobenzoyl)-N-(pyridin-4-yl)-1H-pyrrole-2-carboxamide]		0.9
O=C(NC1CCNC1)c1cc(C(=O)c2c(F)cccc2F)c[nH]1 (stereo not drawn) [Example 125, 4-(2,6-Difluorobenzoyl)-N-(pyrrolidin-3-yl)-1H-pyrrole-2-carboxamide]	31	
O=C(Nc1cc[n+]([O-])cc1)c1cc(C(=O)c2c(F)cccc2F)c[nH]1 [Example 127, 4-(4-(2,6-Difluorobenzoyl)-1H-pyrrole-2-carboxamido)pyridine 1-oxide]	11.5	
O=C(Nc1ccc[n+]([O-])c1)c1cc(C(=O)c2c(F)cccc2F)c[nH]1 [Example 128, 3-(4-(2,6-Difluorobenzoyl)-1H-pyrrole-2-carboxamido)pyridine 1-oxide]	13.8	
O=C(Nc1ccncn1)c1cc(C(=O)c2c(F)cccc2F)c[nH]1 [Example 130, 4-(2,6-Difluorobenzoyl)-N-(pyrimidin-4-yl)-1H-pyrrole-2-carboxamide]	2.14	
O=C(Nc1ccncn1)c1cc(C(=O)c2cccc(Cl)c2Cl)c[nH]1 [Example 131, 4-(2,3-Dichlorobenzoyl)-N-(pyrimidin-4-yl)-1H-pyrrole-2-carboxamide]	2.66	
O=C(Nc1ccncn1)c1cc(C(=O)c2c(F)cccc2Cl)c[nH]1 [Example 132, 4-(2-Chloro-6-fluorobenzoyl)-N-(pyrimidin-4-yl)-1H-pyrrole-2-carboxamide]	1.15	
O=C(Nc1ccncn1)c1cc(C(=O)c2c(F)cccc2Br)c[nH]1 [Example 133, 4-(2-Bromo-6-fluorobenzoyl)-N-(pyrimidin-4-yl)-1H-pyrrole-2-carboxamide]	1.8	

Now from value to compound:

IC50 [1] [µM]	IC50 [µM]	Structure (SMILES)
0.394		Cc1ncccc1NC(=O)c1cc(C(=O)c2c(Cl)ccc(Cl)c2F)c[nH]1 [Example 81, 4-(3,6-Dichloro-2-fluorobenzoyl)-N-(2-methylpyridin-3-yl)-1H-pyrrole-2-carboxamide]
1.05		CCc1ncccc1NC(=O)c1cc(C(=O)c2c(Cl)ccc(Cl)c2F)c[nH]1 [Example 82, 4-(3,6-Dichloro-2-fluorobenzoyl)-N-(2-ethylpyridin-3-yl)-1H-pyrrole-2-carboxamide]
0.483		Cc1ccncc1NC(=O)c1cc(C(=O)c2c(Cl)ccc(Cl)c2F)c[nH]1 [Example 93, 4-(3,6-Dichloro-2-fluorobenzoyl)-N-(4-methylpyridin-3-yl)-1H-pyrrole-2-carboxamide]
1		COc1ccncc1NC(=O)c1cc(C(=O)c2c(Cl)ccc(Cl)c2F)c[nH]1 [Example 96, 4-(3,6-Dichloro-2-fluorobenzoyl)-N-(4-methoxypyridin-3-yl)-1H-pyrrole-2-carboxamide]
0.115		CS(=O)(=O)CCNc1ncc(NC(=O)c2cc(C(=O)c3c(Cl)ccc(Cl)c3F)c[nH]2)cn1 [Example 101, 4-(3,6-Dichloro-2-fluorobenzoyl)-N-(2-((2-(methylsulfonyl)ethyl)amino)pyrimidin-5-yl)-1H-pyrrole-2-carboxamide]
0.0207		CN1CCC(N(C)c2ncc(NC(=O)c3cc(C(=O)c4c(Cl)ccc(Cl)c4F)c[nH]3)cn2)CC1 [Example 105, 4-(3,6-Dichloro-2-fluorobenzoyl)-N-(2-(methyl(1-methylpiperidin-4-yl)amino)pyrimidin-5-yl)-1H-pyrrole-2-carboxamide]
0.02		CN(c1ncc(NC(=O)c2cc(C(=O)c3c(Cl)ccc(Cl)c3F)c[nH]2)cn1)C1CCNCC1 [Example 106, 4-(3,6-Dichloro-2-fluorobenzoyl)-N-(2-(methyl(piperidin-4-yl)amino)pyrimidin-5-yl)-1H-pyrrole-2-carboxamide]
0.0218		COc1ccc(Cl)c(C(=O)c2c[nH]c(C(=O)Nc3ccc(CN4CCOCC4)nc3)c2)c1F [Example 116, 4-(6-Chloro-2-fluoro-3-methoxybenzoyl)-N-(6-(morpholinomethyl)pyridin-3-yl)-1H-pyrrole-2-carboxamide]
0.0092		COc1ccc(Cl)c(C(=O)c2c[nH]c(C(=O)Nc3ccc(CC4CCNCC4)nc3)c2)c1F [Example 117, 4-(6-Chloro-2-fluoro-3-methoxybenzoyl)-N-(6-(piperidin-4-ylmethyl)pyridin-3-yl)-1H-pyrrole-2-carboxamide]
0.53		O=C(Nc1ccc(CO)nc1)c1cc(C(=O)c2c(F)cccc2Cl)c[nH]1 [Example 119, 4-(2-chloro-6-fluorobenzoyl)-N-(6-(hydroxymethyl)pyridin-3-yl)-1H-pyrrole-2-carboxamide]
0.2		O=C(Nc1ccc(CO)nc1)c1cc(C(=O)c2c(Cl)ccc(Cl)c2F)c[nH]1 [Example 120, 4-(3,6-dichloro-2-fluorobenzoyl)-N-(6-(hydroxymethyl)pyridin-3-yl)-1H-pyrrole-2-carboxamide]
0.368		Cc1cc(NC(=O)c2cc(C(=O)c3c(F)cccc3Cl)c[nH]2)cc(C)n1 [Example 134, 4-(2-Chloro-6-fluorobenzoyl)-N-(2,6-dimethylpyridin-4-yl)-1H-pyrrole-2-carboxamide]
0.653		Cc1cc(NC(=O)c2cc(C(=O)c3c(F)cccc3Br)c[nH]2)cc(C)n1 [Example 135, 4-(2-Bromo-6-fluorobenzoyl)-N-(2,6-dimethylpyridin-4-yl)-1H-pyrrole-2-carboxamide]
